# Measurements as given in publication PMC12165799, “Antimicrobial peptide developed with machine learning sequence optimization targets drug resistant Staphylococcus aureus in mice” (The Journal of Clinical Investigation, 2025).
# Where two headings read alike, the source gives them in different places.
# Legend:
# S. aureus MW2 = assay: Minimal inhibitory concentration (MIC) assay, broth microdilution; format: cell-based, Staphylococcus aureus; settings: Staphylococcus aureus
# Method: 300 Synthesis of peptides
# 302 Piscataway, NJ, USA).
# 305 Minimal inhibitory concentration (MIC) assay
# We made serial dilutions of 10×
# We determined the MIC using OD600
# Accordingly, we added 150 mM NaCl,
# 319 established protocol (5).
# [1] = tested on: MRSA (S. aureus MW2) biofilm; assay: Biofilm viability assay on solid support (MW2); format: cell-based, Staphylococcus aureus; settings: S. aureus MW2, 10 μg/ml, 24 h in PBS
# [2] = tested on: VRSA (S. aureus VRS1) biofilm; assay: Biofilm viability assay on solid support (VRS1); format: cell-based, Staphylococcus aureus; settings: S. aureus VRS1, 10 μg/ml, 24 h in PBS
# [3] = tested on: S. aureus MW2 24 h established biofilm; settings: 24 h treatment
# Method: 346 plated onto TSA plates, and incubated plates at 37°C overnight. The next day, we counted the
# 347 viable bacterial colonies.
# We used TSB medium containing
# 356 bacteria with water as the positive control, while TSB media with sterile water served as the
# 357 negative control. After incubation, we carefully removed the TSB medium and washed the wells
# 358 with PBS (Gibco, MD, USA) to remove loosely attached planktonic cells. We quantified the
# 359 biomass by staining the biofilms with crystal violet following an established protocol and
# 360 quantitated the concentration of peptide that inhibits 50% of biofilm formation (MBIC50)(8). We
# 361 measured the live cell count of the biofilms using XTT dye [2,3-bis(2-methyloxy-4-nitro-5-
# 362 sulfophenyl)-2H-tertazolium-5-carboxanilide] (ATCC, VA, USA). We calculated the percentage
# 363 of biofilm growth by normalizing to biofilm growth in wells containing bacteria without peptide
# 366 Disruption of S. aureus MW2 established biofilms
# 367 We evaluated the ability of the citropin 1.1-derived peptides to disrupt established biofilms
# 368 following an established protocol with modifications (5). We prepared exponential cultures of S.
# 369 aureus MW2 (adjusted to 1 × 10^6 CFU/ml) in TSB medium (supplemented with 0.2% glucose)
# 370 from overnight grown cultures. We added 100 µl of bacterial culture to flat-bottomed 96-well
# 371 polystyrene microtiter plates (Cat no. 3595, Corning, NY, USA). We then incubated the plates at
# 372 37°C for 24 hours in static conditions to allow biofilm formation. After incubation, we carefully
# 373 pipetted out the TSB medium and washed the wells with PBS (Gibco, MD, USA) to remove
# 374 loosely attached planktonic cells. We treated the established biofilms in each well with 10 µl of
# 375 serially diluted 10× peptide solution, followed by the addition of 90 μl TSB medium
# 376 (supplemented with 0.2% glucose). We incubated the plates for another 24 h at 37°C before
# 377 processing biomass and live-cell contents. We calculated the concentration of peptide that disrupts
# 378 50% of established biofilms (MBEC50).
# S. aureus MW2 membrane = assay: Propidium iodide-based membrane permeability; format: cell-based, Staphylococcus aureus; settings: S. aureus MW2, 60 minutes
# Method: 484 min at room temperature in the dark based on a previously established protocol (8). We added 90
# 485 µl of the dye/bacteria mixture to 10 μl of serially diluted 10× peptide concentration in black, 96-
# 486 well plates (Cat. no. 3904, Corning, NY, USA) and incubated the plates for 1 hour at room
# 487 temperature. We measured the fluorescence with excitation and emission wavelengths of 485 nm
# 488 and 525 nm, respectively in endpoint assay mode using a SpectraMax i3x (Molecular Devices,
# 489 CA, USA) fluorescence reader.
# 490 Propidium iodide-based membrane permeability
# 491 We used a propidium iodide (Thermo Fisher Scientific, MA, USA) fluorescence-based
# 492 bacterial permeation assay to establish membrane-oriented interactions with the designed peptides
# 493 based on a previously established protocol (8). We prepared exponential phase S. aureus MW2
# 494 bacteria and diluted to OD600 = 0.4 in PBS. We added PI dye (final concentration = 2 µM) to the
# 495 bacteria in 1:10 serial dilutions in black, 96-well plates (Cat. no. 3904, Corning, NY, USA) and
# 496 incubated the plates for 1 hour at room temperature. We then measured the fluorescence with an
# 497 excitation wavelength of 584 nm and an emission wavelength of 620 nm in endpoint assay mode
# 498 using a SpectraMax i3x (Molecular Devices, CA, USA) fluorescence reader.
# 501 To determine the ATP leakage potential of the peptides, we employed a luciferase-based
# 502 assay(18). In brief, we washed exponential phase of S. aureus MW2 bacteria three times with PBS
# 503 (pH 7.4) and adjusted the washed cells to OD600 = 0.4 in PBS. Following treatment of the bacteria
# 504 with 32 µg/ml of CIT-8 peptide at 37°C for 30 min, we centrifuged the cells at 14,000× g for 5
# 505 min. We transferred 50 µl of each supernatant fraction to black, clear-bottom, 96-well plates
compound,measurement,setting,value
"CN[C@H](CC(C)C)C(=O)N[C@H]1C(=O)N[C@@H](CC(N)=O)C(=O)N[C@H]2C(=O)N[C@H]3C(=O)N[C@H](C(=O)N[C@H](C(=O)O)c4cc(O)cc(O)c4-c4cc3ccc4O)[C@H](O)c3ccc(c(Cl)c3)Oc3cc2cc(c3O[C@@H]2O[C@H](CO)[C@@H](O)[C@H](O)[C@H]2O[C@H]2C[C@](C)(N)[C@H](O)[C@H](C)O2)Oc2ccc(cc2Cl)[C@H]1O [Vancomycin, reference compound]",MIC,"S. aureus MW2; MW2, 18 h, read-out: MIC SA",≤ 0.125 µg/mL
same,MIC,"S. aureus MW2; read-out: MIC + MgSO4 (1 mM), S. aureus MW2, TSB + 1 mM MgSO4",≤ 1 µg/mL
same,MIC,"S. aureus MW2; read-out: MIC + human serum (10%), S. aureus MW2, TSB + 10% human serum",≤ 1 µg/mL
same,MIC,"S. aureus MW2; S. aureus MW2, TSB + 8 μM ZnSO4, read-out: MIC + ZnSO4 (8 μM)",≤ 1 µg/mL
same,MIC,"S. aureus MW2; S. aureus MW2, TSB + 2.5 mM CaCl2, read-out: MIC + CaCl2 (2.5 mM)",≤ 1 µg/mL
same,MIC,"S. aureus MW2; S. aureus MW2, TSB + 150 mM NaCl, read-out: MIC + NaCl (150 mM)",≤ 1 µg/mL
same,MIC,"S. aureus MW2; S. aureus MW2, TSB + 5% human serum, read-out: MIC + human serum (5%)",≤ 1 µg/mL
same,MIC,"S. aureus MW2; S. aureus MW2, TSB, read-out: MIC, Medium only",1 µg/mL
same,Bacterial load of 24 hour established biofilm on solid membrane,[1]; replicate 1,160000000
same,Bacterial load of 24 hour established biofilm on solid membrane,[1]; replicate 2,18000000
same,Bacterial load of 24 hour established biofilm on solid membrane,[1]; replicate 3,28000000
same,Bacterial load of 24 hour established biofilm on solid membrane,[1]; replicate 4,40000000
same,Bacterial load of 24 hour established biofilm on solid membrane,[1]; replicate 5,20000000
same,Bacterial load of 24 hour established biofilm on solid membrane,[1]; replicate 6,60000000
same,Bacterial load of 24 hour established biofilm on solid membrane,[2]; replicate 1,40000000
same,Bacterial load of 24 hour established biofilm on solid membrane,[2]; replicate 2,40000000
same,Bacterial load of 24 hour established biofilm on solid membrane,[2]; replicate 3,60000000
same,Bacterial load of 24 hour established biofilm on solid membrane,[2]; replicate 4,60000000
same,Bacterial load of 24 hour established biofilm on solid membrane,[2]; replicate 5,20000000
same,Bacterial load of 24 hour established biofilm on solid membrane,[2]; replicate 6,20000000
same,"Established biofilm, biomass (crystal violet), percentage of untreated","[3]; 4 μg/ml, replicate 1",149.693
same,"Established biofilm, live-cell viability (XTT), percentage of untreated","[3]; 4 μg/ml, replicate 1",100.129
same,"Established biofilm, biomass (crystal violet), percentage of untreated","[3]; 4 μg/ml, replicate 2",84.8543
same,"Established biofilm, live-cell viability (XTT), percentage of untreated","[3]; 4 μg/ml, replicate 2",106.559
same,"Established biofilm, biomass (crystal violet), percentage of untreated","[3]; 4 μg/ml, replicate 3",49.5143
same,"Established biofilm, live-cell viability (XTT), percentage of untreated","[3]; 4 μg/ml, replicate 3",106.192
same,"Established biofilm, biomass (crystal violet), percentage of untreated","[3]; 8 μg/ml, replicate 1",88.3691
same,"Established biofilm, live-cell viability (XTT), percentage of untreated","[3]; 8 μg/ml, replicate 1",102.865
same,"Established biofilm, live-cell viability (XTT), percentage of untreated","[3]; 8 μg/ml, replicate 2",105.547
same,"Established biofilm, biomass (crystal violet), percentage of untreated","[3]; 8 μg/ml, replicate 3",88.3308
same,"Established biofilm, live-cell viability (XTT), percentage of untreated","[3]; 8 μg/ml, replicate 3",106.722
same,"Established biofilm, biomass (crystal violet), percentage of untreated","[3]; 16 μg/ml, replicate 1",138.471
same,"Established biofilm, live-cell viability (XTT), percentage of untreated","[3]; 16 μg/ml, replicate 1",64.3129
same,"Established biofilm, biomass (crystal violet), percentage of untreated","[3]; 16 μg/ml, replicate 2",273.773
same,"Established biofilm, live-cell viability (XTT), percentage of untreated","[3]; 16 μg/ml, replicate 2",78.7072
same,"Established biofilm, biomass (crystal violet), percentage of untreated","[3]; 16 μg/ml, replicate 3",273.774
same,"Established biofilm, live-cell viability (XTT), percentage of untreated","[3]; 16 μg/ml, replicate 3",47.5625
same,"Established biofilm, biomass (crystal violet), percentage of untreated","[3]; 32 μg/ml, replicate 1",98.1851
same,"Established biofilm, live-cell viability (XTT), percentage of untreated","[3]; 32 μg/ml, replicate 1",0.7061
same,"Established biofilm, biomass (crystal violet), percentage of untreated","[3]; 32 μg/ml, replicate 2",78.1697
same,"Established biofilm, live-cell viability (XTT), percentage of untreated","[3]; 32 μg/ml, replicate 2",1.691
same,"Established biofilm, biomass (crystal violet), percentage of untreated","[3]; 32 μg/ml, replicate 3",90.9509
same,"Established biofilm, live-cell viability (XTT), percentage of untreated","[3]; 32 μg/ml, replicate 3",6.084
same,Propidium iodide fluorescence (membrane permeation),S. aureus MW2 membrane,did not induce fluorescence
